Measured values taken from patent publication US20230293526A1, “METHOD FOR TREATING CANCER WITH A REVERSE TRANSCRIPTASE INHIBITOR” (PrimeFour Therapeutics, Inc., priority 2020, published 2023).

Legend:
Experiment in all cases: Cell proliferation CellTiterGlo Ex.2
Type in all cases: cell-based
COR-L279 = details: Homo sapiens; COR-L279 (Lung), 72 h
Method: (§1) A dose response relationship on cell proliferation was assessed for Compound 13 on 140 tumor cell lines. Briefly, compound treatment of cells started one day after seeding with a final DMSO concentration of 0.100, and was performed by nanodrop-dispensing using a Tecan Dispenser. 0.10% DMSO (solvent) and Staurosporine (10 μM) served as high control (10000 viability) and low control (000 viability), respectively. Compound 13 was tested at 10, 3, 1, 0.3, 0.1, 0.03, 0.01, and 0.003 μM.
(§2) Cells were cultured in the appropriate media. For the assays, cells were seeded in white cell culture-treated flat and clear bottom multiwell plates and incubated at 37° C. overnight before compound was added. After incubation for 72 h at 37° C. at 5% or 10% CO2 dependent on the medium, cell plates were equilibrated to room temperature for one hour, CellTiterGlo reagent (Promega) was added and luminescence was measured approximately an hour later using a luminometer.
(§3) Raw data were converted into percent cell viability relative to the high and low control, which were set to 10000 and 000, respectively.

RERF-LC-Ad2 = RERF-LC-Ad2 (Lung), 72 h
Method: as §1, §2, §3

LOVO = details: Homo sapiens; LOVO (Colon), 72 h
Method: as §1, §2, §3

J82 = details: Homo sapiens; J82 (Bladder), 72 h
Method: as §1, §2, §3

HT-29 = details: Homo sapiens; HT-29 (Colon), 72 h
Method: as §1, §2, §3

SK-MEL-3 = details: Homo sapiens, SK-MEL3; SK-MEL-3 (Skin), 72 h
Method: as §1, §2, §3

DU-145 = details: Homo sapiens; DU-145 (Prostate), 72 h
Method: as §1, §2, §3

MCAS = MCAS (Ovary), 72 h
Method: as §1, §2, §3

SNU-16 = details: Homo sapiens; SNU-16 (Stomach), 72 h
Method: as §1, §2, §3

ZR-75-1 = details: Homo sapiens; ZR-75-1 (Breast), 72 h
Method: as §1, §2, §3

HEC-1-A = details: Homo sapiens; HEC-1-A (Endometrium), 72 h
Method: as §1, §2, §3

NCI-H1581 = details: Homo sapiens; NCI-H1581 (Lung), 72 h
Method: as §1, §2, §3

SU-DHL-5 = details: Homo sapiens; SU-DHL-5 (Blood), 72 h
Method: as §1, §2, §3

U2OS = details: Homo sapiens; U2OS (Bone), 72 h
Method: as §1, §2, §3

MDA-MB-468 = details: Homo sapiens; MDA-MB-468 (Breast), 72 h
Method: as §1, §2, §3

Colo 205 = details: Homo sapiens; Colo 205 (Colon), 72 h
Method: as §1, §2, §3

U-937 = details: Homo sapiens; U-937 (Blood), 72 h
Method: as §1, §2, §3

BxPC-3 = details: Homo sapiens; BxPC-3 (Pancreas), 72 h
Method: as §1, §2, §3

MOLM-13 = details: Homo sapiens; MOLM-13 (Blood), 72 h
Method: as §1, §2, §3

LnCap = details: Homo sapiens; LnCap (Prostate), 72 h
Method: as §1, §2, §3

HCC827 = details: Homo sapiens; HCC827 (Lung), 72 h
Method: as §1, §2, §3

U87MG = details: Homo sapiens, U-87 MG; U87MG (Brain), 72 h
Method: as §1, §2, §3

A2058 = details: Homo sapiens; A2058 (Skin), 72 h
Method: as §1, §2, §3

Caki-2 = details: Homo sapiens; Caki-2 (Kidney), 72 h
Method: as §1, §2, §3

MCF-7 = details: Homo sapiens, MCF7; MCF-7 (Breast), 72 h
Method: as §1, §2, §3

DLD-1 = details: Homo sapiens; DLD-1 (Colon), 72 h
Method: as §1, §2, §3

NCI-H1048 = details: Homo sapiens; NCI-H1048 (Lung), 72 h
Method: as §1, §2, §3

H4 = H4 (Brain), 72 h
Method: as §1, §2, §3

Ishikawa = details: Homo sapiens; Ishikawa (Endometrium), 72 h
Method: as §1, §2, §3

RPMI 8226 = details: Homo sapiens; RPMI 8226 (Blood), 72 h
Method: as §1, §2, §3

HeLa = details: Homo sapiens; HeLa (Cervix), 72 h
Method: as §1, §2, §3

DV90 = details: Homo sapiens, DV-90; DV90 (Lung), 72 h
Method: as §1, §2, §3

PANC-1 = details: Homo sapiens; PANC-1 (Pancreas), 72 h
Method: as §1, §2, §3

HT-1080 = details: Homo sapiens; HT-1080 (Fibrosarcoma), 72 h
Method: as §1, §2, §3

SMILES: C#C[C@]1(CO)O[C@@H](n2cnc3c(=O)[nH]c(N)nc32)C[C@@H]1O [compound 13]
- IC50 (COR-L279): > 10 µM
- IC50 (RERF-LC-Ad2): 2.58 µM
- IC50 (LOVO): 8.21 µM
- IC50 (J82): 5.73 µM
- IC50 (HT-29): > 10 µM
- IC50 (SK-MEL-3): > 10 µM
- IC50 (DU-145): 5.73 µM
- IC50 (MCAS): > 10 µM
- IC50 (SNU-16): 1.95 µM
- IC50 (ZR-75-1): > 10 µM
- IC50 (HEC-1-A): > 10 µM
- IC50 (NCI-H1581): 2.97 µM
- IC50 (SU-DHL-5): 3.74 µM
- IC50 (U2OS): 2.18 µM
- IC50 (MDA-MB-468): > 10 µM
- IC50 (Colo 205): 1.5 µM
- IC50 (U-937): 1.12 µM
- IC50 (BxPC-3): 5.43 µM
- IC50 (MOLM-13): 0.46 µM
- IC50 (LnCap): > 10 µM
- IC50 (HCC827): 4.47 µM
- IC50 (U87MG): 6.39 µM
- IC50 (A2058): > 10 µM
- IC50 (Caki-2): > 10 µM
- IC50 (MCF-7): > 10 µM
- IC50 (DLD-1): > 10 µM
- IC50 (NCI-H1048): 2.49 µM
- IC50 (H4): > 10 µM
- IC50 (Ishikawa): 6.07 µM
- IC50 (RPMI 8226): > 10 µM
- IC50 (HeLa): 1.3 µM
- IC50 (DV90): 1.59 µM
- IC50 (PANC-1): > 10 µM
- IC50 (HT-1080): 7.16 µM
